Results on three molecules are retold here after patent publication US20090048247A1, “CONDENSED ISOXALINE DERIVATIVES AS INHIBITORS OF PHOSPHODIESTERASE TYPE - IV” (priority 2005, published 2009).

A short description of series [1]: Solubility under the experimental conditions of the PDE-IV enzyme assay.
Method: The PDE-4 enzyme source used was U937 cell cytosolic fraction prepared by sonication. The enzyme reaction was carried out, with the cytosolic fraction as the enzyme source, in the presence of cAMP (1 μM) at 30° C. in the presence or absence of NCE for 45-60 min. An aliquot of this reaction mixture was taken further for the ELISA assay to determine level of cAMP in the sample. The concentration of the cAMP in the sample directly correlates with the degree of PDE-4 enzyme inhibition.
In series [2] the test system is TNF-α release, human peripheral blood mononuclear cells. Kind of series: Cell Based Assay for TNF-α Release (LPS stimulation of Human PBMNC's). To be noted: PBMC, LPS 1 μg/ml, TNF-α by ELISA, comparator, 4 repetitions. The protocol:
Human whole blood was collected in vacutainer tubes containing heparin or EDTA as an anti coagulant. The blood was diluted (1:1) in sterile phosphate buffered saline and 10 ml. was carefully layered over 5 ml Ficoll Hypaque gradient (density 1.077 g/ml) in a 15 ml conical centrifuge tube. The sample was centrifuged at 3000 rpm for 25 minutes in a swing-out rotor at room temperature. After centrifugation, interface of cells were collected, diluted at least 1:5 with PBS and washed three times by centrifugation at 2500 rpm for 10 minutes at room temperature. The cells were resuspended in serum free RPMI 1640 medium at a concentration of 2 million cells/ml. Alternatively whole blood was used.
LPS stimulation of Human PBMNC's:
PBMN cells (0.1 ml; 2 million/ml) were co-incubated with 20 μl of compound (final DMSO concentration of 0.2%) for 10 min in a flat bottom 96 well microtiter plate. Compounds were dissolved in DMSO initially and diluted in medium for a final concentration of 0.2% DMSO. LPS (1 μg/ml, final concentration) was then added at a volume of 10 μl per well. After 30 min, 20 μl of fetal calf serum (final concentration of 10%) was added to each well. […] The level of TNFα in treated wells was compared with the vehicle treated controls and inhibitory potency of compound was expressed as IC50 values calculated by using Graph pad prism.

Consider `c1cc(OC2CCCC2)c(OC2CCCCCC2)cc1C1=NOC2(CCOC2)C1` (stereo not drawn) [Compound No. 119, 3-[3-(Cycloheptyloxy)-4-(cyclopentyloxy)phenyl]-1,7-dioxa-2-azaspiro[4.4]non-2-ene], for which, in series [1], the “solubility under the experimental conditions” value is on record as “insoluble”.

The IC50 is the concentration at which inhibition is half-maximal. Low values mean higher potency, high ones lower potency. As for `COc1ccc(C2CNC(=O)C2)cc1OC1CCCC1` (stereo not drawn) [rolipram], the IC50 in series [2] is around 240 nM. The melting point is the temperature of the solid-liquid transition. With `COc1ccc(C2=NO[C@]3(CCOC3)C2)cc1OC1CCCC1` [Compound No. 124, (S)-3-[3-(cyclopentyloxy)-4-methoxyphenyl]-1,7-dioxa-2-azaspiro[4.4]non-2-ene], the melting point amounted to 110.5 °C.
